Assay results as given in ChEMBL document CHEMBL5375952, “Discovery of Novel 8-Hydroxyquinoline Derivatives with Potent In Vitro and In Vivo Antifungal Activity” (J Med Chem, 2023).
In brackets after ≈: the same amount, converted by molar mass.

Columns and labels:
Candida albicans [1] = assay: Antifungal activity against Candida albicans SC5314 assessed as fungal growth inhibition incubated for 48 hrs by broth microdilution method; type: functional
Candida albicans [2] = assay: Antifungal activity against Candida albicans 22 assessed as fungal growth inhibition incubated for 48 hrs by broth microdilution method; type: functional
Nakaseomyces glabratus [3] = assay: Antifungal activity against Candida glabrata 202 assessed as fungal growth inhibition incubated for 48 hrs by broth microdilution method; type: functional
Nakaseomyces glabratus [4] = assay: Antifungal activity against Candida glabrata 205 assessed as fungal growth inhibition incubated for 48 hrs by broth microdilution method; type: functional
Pichia kudriavzevii [5] = assay: Antifungal activity against Candida krusei 68 assessed as fungal growth inhibition incubated for 48 hrs by broth microdilution method; type: functional
Pichia kudriavzevii [6] = assay: Antifungal activity against Candida krusei 69 assessed as fungal growth inhibition incubated for 48 hrs by broth microdilution method; type: functional
Pichia kudriavzevii [7] = assay: Antifungal activity against Candida krusei 477 assessed as fungal growth inhibition incubated for 48 hrs by broth microdilution method; type: functional
Candida parapsilosis [8] = assay: Antifungal activity against Candida parapsilosis 105 assessed as fungal growth inhibition incubated for 48 hrs by broth microdilution method; type: functional; settings: Lodderomyces parapsilosis
Candida parapsilosis [9] = assay: Antifungal activity against Candida parapsilosis 107 assessed as fungal growth inhibition incubated for 48 hrs by broth microdilution method; type: functional; settings: Lodderomyces parapsilosis
Candida parapsilosis [10] = assay: Antifungal activity against Candida parapsilosis 125 assessed as fungal growth inhibition incubated for 48 hrs by broth microdilution method; type: functional; settings: Lodderomyces parapsilosis
Candida tropicalis [11] = assay: Antifungal activity against Candida tropicalis 176 assessed as fungal growth inhibition incubated for 48 hrs by broth microdilution method; type: functional
Candida tropicalis [12] = assay: Antifungal activity against Candida tropicalis 178 assessed as fungal growth inhibition incubated for 48 hrs by broth microdilution method; type: functional
Candida tropicalis [13] = assay: Antifungal activity against Candida tropicalis 184 assessed as fungal growth inhibition incubated for 48 hrs by broth microdilution method; type: functional
Cryptococcus neoformans [14] = assay: Antifungal activity against Cryptococcus neoformans 443 assessed as fungal growth inhibition incubated for 48 hrs by broth microdilution method; type: functional
Cryptococcus neoformans [15] = assay: Antifungal activity against Cryptococcus neoformans 444 assessed as fungal growth inhibition incubated for 48 hrs by broth microdilution method; type: functional
Cryptococcus neoformans [16] = assay: Antifungal activity against Cryptococcus neoformans 445 assessed as fungal growth inhibition incubated for 48 hrs by broth microdilution method; type: functional
Aspergillus fumigatus [17] = assay: Antifungal activity against Aspergillus fumigatus 023-12 assessed as fungal growth inhibition incubated for 48 hrs by broth microdilution method; type: functional
Aspergillus fumigatus [18] = assay: Antifungal activity against Aspergillus fumigatus A assessed as fungal growth inhibition incubated for 48 hrs by broth microdilution method; type: functional
Aspergillus fumigatus [19] = assay: Antifungal activity against Aspergillus fumigatus 7544 assessed as fungal growth inhibition incubated for 48 hrs by broth microdilution method; type: functional
Candida albicans [20] = assay: Antifungal activity against Candida albicans 25 assessed as fungal growth inhibition incubated for 48 hrs by broth microdilution method; type: functional
Candida albicans [21] = assay: Antifungal activity against Candida albicans 337 assessed as fungal growth inhibition incubated for 48 hrs by broth microdilution method; type: functional
Candida albicans [22] = assay: Antifungal activity against Candida albicans 338 assessed as fungal growth inhibition incubated for 48 hrs by broth microdilution method; type: functional
[Candida] auris [23] = Antifungal activity against Candida auris 276 assessed as fungal growth inhibition incubated for 48 hrs by broth microdilution method; type: functional; settings: Candidozyma auris
[Candida] auris [24] = Antifungal activity against Candida auris 277 assessed as fungal growth inhibition incubated for 48 hrs by broth microdilution method; type: functional; settings: Candidozyma auris
[Candida] auris [25] = Antifungal activity against Candida auris 278 assessed as fungal growth inhibition incubated for 48 hrs by broth microdilution method; type: functional; settings: Candidozyma auris
[Candida] auris [26] = Antifungal activity against Candida auris 887 assessed as fungal growth inhibition incubated for 48 hrs by broth microdilution method; type: functional; settings: Candidozyma auris
[Candida] auris [27] = Antifungal activity against Candida auris 888 assessed as fungal growth inhibition incubated for 48 hrs by broth microdilution method; type: functional; settings: Candidozyma auris
Nakaseomyces glabratus [28] = assay: Antifungal activity against Candida glabrata 203 assessed as fungal growth inhibition incubated for 48 hrs by broth microdilution method; type: functional
Nakaseomyces glabratus [29] = assay: Antifungal activity against Candida glabrata 204 assessed as fungal growth inhibition incubated for 48 hrs by broth microdilution method; type: functional
Nakaseomyces glabratus [30] = assay: Antifungal activity against Candida glabrata 222 assessed as fungal growth inhibition incubated for 48 hrs by broth microdilution method; type: functional
Pichia kudriavzevii [31] = assay: Antifungal activity against Candida krusei 471 assessed as fungal growth inhibition incubated for 48 hrs by broth microdilution method; type: functional
Pichia kudriavzevii [32] = assay: Antifungal activity against Candida krusei 472 assessed as fungal growth inhibition incubated for 48 hrs by broth microdilution method; type: functional
Pichia kudriavzevii [33] = assay: Antifungal activity against Candida krusei 474 assessed as fungal growth inhibition incubated for 48 hrs by broth microdilution method; type: functional
Candida parapsilosis [34] = assay: Antifungal activity against Candida parapsilosis 104 assessed as fungal growth inhibition incubated for 48 hrs by broth microdilution method; type: functional; settings: Lodderomyces parapsilosis
Candida parapsilosis [35] = assay: Antifungal activity against Candida parapsilosis ATCC22019 assessed as fungal growth inhibition incubated for 48 hrs by broth microdilution method; type: functional; settings: Lodderomyces parapsilosis
Candida parapsilosis [36] = assay: Antifungal activity against Candida parapsilosis 106 assessed as fungal growth inhibition incubated for 48 hrs by broth microdilution method; type: functional; settings: Lodderomyces parapsilosis
Candida tropicalis [37] = assay: Antifungal activity against Candida tropicalis 172 assessed as fungal growth inhibition incubated for 48 hrs by broth microdilution method; type: functional
Candida tropicalis [38] = assay: Antifungal activity against Candida tropicalis 177 assessed as fungal growth inhibition incubated for 48 hrs by broth microdilution method; type: functional
Candida tropicalis [39] = assay: Antifungal activity against Candida tropicalis 182 assessed as fungal growth inhibition incubated for 48 hrs by broth microdilution method; type: functional
Cryptococcus neoformans [40] = assay: Antifungal activity against Cryptococcus neoformans SH68 assessed as fungal growth inhibition incubated for 48 hrs by broth microdilution method; type: functional
Cryptococcus neoformans [41] = assay: Antifungal activity against Cryptococcus neoformans HN1 assessed as fungal growth inhibition incubated for 48 hrs by broth microdilution method; type: functional
Cryptococcus neoformans [42] = assay: Antifungal activity against Cryptococcus neoformans HN2 assessed as fungal growth inhibition incubated for 48 hrs by broth microdilution method; type: functional
Cryptococcus neoformans [43] = assay: Antifungal activity against Cryptococcus neoformans HN2-40 assessed as fungal growth inhibition incubated for 48 hrs by broth microdilution method; type: functional
Cryptococcus neoformans [44] = assay: Antifungal activity against Cryptococcus neoformans HN15 assessed as fungal growth inhibition incubated for 48 hrs by broth microdilution method; type: functional
Cryptococcus neoformans [45] = assay: Antifungal activity against Cryptococcus neoformans HN17 assessed as fungal growth inhibition incubated for 48 hrs by broth microdilution method; type: functional
Cryptococcus neoformans [46] = assay: Antifungal activity against Cryptococcus neoformans HN19 assessed as fungal growth inhibition incubated for 48 hrs by broth microdilution method; type: functional
Cryptococcus neoformans [47] = assay: Antifungal activity against Cryptococcus neoformans HN20 assessed as fungal growth inhibition incubated for 48 hrs by broth microdilution method; type: functional
Cryptococcus neoformans [48] = assay: Antifungal activity against Cryptococcus neoformans BJ3 assessed as fungal growth inhibition incubated for 48 hrs by broth microdilution method; type: functional
[49] = Antifungal activity against Cryptococcus gattii WM178 assessed as fungal growth inhibition incubated for 48 hrs by broth microdilution method; type: functional, Cryptococcus gattii VGI
[50] = Antifungal activity against Cryptococcus gattii WM179 assessed as fungal growth inhibition incubated for 48 hrs by broth microdilution method; type: functional, Cryptococcus gattii VGI
[51] = Antifungal activity against Cryptococcus gattii E566 assessed as fungal growth inhibition incubated for 48 hrs by broth microdilution method; type: functional, Cryptococcus gattii VGI
[52] = Antifungal activity against Cryptococcus gattii SCZ20024 assessed as fungal growth inhibition incubated for 48 hrs by broth microdilution method; type: functional, Cryptococcus gattii VGI
[53] = Antifungal activity against Cryptococcus gattii SCZ20031 assessed as fungal growth inhibition incubated for 48 hrs by broth microdilution method; type: functional, Cryptococcus gattii VGI

## OC(Cn1cncn1)(Cn1cncn1)c1ccc(F)cc1F [FLUCONAZOLE]
Candida albicans [1]
  MIC: 0.5 µg/mL (≈ 1.63 µM)
Candida albicans [2]
  MIC: 0.5 µg/mL (≈ 1.63 µM)
Nakaseomyces glabratus [3]
  MIC: 1 µg/mL (≈ 3.27 µM)
Nakaseomyces glabratus [4]
  MIC: 1 µg/mL (≈ 3.27 µM)
Pichia kudriavzevii [5]
  MIC: 0.25 µg/mL (≈ 0.816 µM)
Pichia kudriavzevii [6]
  MIC: 0.25 µg/mL (≈ 0.816 µM)
Pichia kudriavzevii [7]
  MIC: 0.25 µg/mL (≈ 0.816 µM)
Candida parapsilosis [8]
  MIC: > 64 µg/mL
Candida parapsilosis [9]
  MIC: > 64 µg/mL
Candida parapsilosis [10]
  MIC: > 64 µg/mL
Candida tropicalis [11]
  MIC: 2 µg/mL (≈ 6.53 µM)
Candida tropicalis [12]
  MIC: 2 µg/mL (≈ 6.53 µM)
Candida tropicalis [13]
  MIC: 2 µg/mL (≈ 6.53 µM)
Cryptococcus neoformans [14]
  MIC: 8 µg/mL (≈ 26.1 µM)
Cryptococcus neoformans [15]
  MIC: 8 µg/mL (≈ 26.1 µM)
Cryptococcus neoformans [16]
  MIC: 8 µg/mL (≈ 26.1 µM)
Aspergillus fumigatus [17]
  MIC: > 64 µg/mL
Aspergillus fumigatus [18]
  MIC: > 64 µg/mL
Aspergillus fumigatus [19]
  MIC: > 64 µg/mL
Candida albicans [20]
  MIC: 0.5 µg/mL (≈ 1.63 µM)
Candida albicans [21]
  MIC: 0.25 µg/mL (≈ 0.816 µM)
Candida albicans [22]
  MIC: 0.5 µg/mL (≈ 1.63 µM)
[Candida] auris [23]
  MIC: 2 µg/mL (≈ 6.53 µM)
[Candida] auris [24]
  MIC: 4 µg/mL (≈ 13.1 µM)
[Candida] auris [25]
  MIC: > 64 µg/mL
[Candida] auris [26]
  MIC: > 64 µg/mL
[Candida] auris [27]
  MIC: > 64 µg/mL
Nakaseomyces glabratus [28]
  MIC: 0.125 µg/mL (≈ 0.408 µM)
Nakaseomyces glabratus [29]
  MIC: 1 µg/mL (≈ 3.27 µM)
Nakaseomyces glabratus [30]
  MIC: 1 µg/mL (≈ 3.27 µM)
Pichia kudriavzevii [31]
  MIC: > 64 µg/mL
Pichia kudriavzevii [32]
  MIC: > 64 µg/mL
Pichia kudriavzevii [33]
  MIC: > 64 µg/mL
Candida parapsilosis [34]
  MIC: 0.5 µg/mL (≈ 1.63 µM)
Candida parapsilosis [35]
  MIC: 0.5 µg/mL (≈ 1.63 µM)
Candida parapsilosis [36]
  MIC: 0.5 µg/mL (≈ 1.63 µM)
Candida tropicalis [37]
  MIC: 0.125 µg/mL (≈ 0.408 µM)
Candida tropicalis [38]
  MIC: 2 µg/mL (≈ 6.53 µM)
Candida tropicalis [39]
  MIC: 0.125 µg/mL (≈ 0.408 µM)
Cryptococcus neoformans [40]
  MIC: 8 µg/mL (≈ 26.1 µM)
Cryptococcus neoformans [41]
  MIC: 4 µg/mL (≈ 13.1 µM)
Cryptococcus neoformans [42]
  MIC: 4 µg/mL (≈ 13.1 µM)
Cryptococcus neoformans [43]
  MIC: 8 µg/mL (≈ 26.1 µM)
Cryptococcus neoformans [44]
  MIC: 4 µg/mL (≈ 13.1 µM)
Cryptococcus neoformans [45]
  MIC: 16 µg/mL (≈ 52.2 µM)
Cryptococcus neoformans [46]
  MIC: 8 µg/mL (≈ 26.1 µM)
Cryptococcus neoformans [47]
  MIC: 2 µg/mL (≈ 6.53 µM)
Cryptococcus neoformans [48]
  MIC: 16 µg/mL (≈ 52.2 µM)
[49]
  MIC: 4 µg/mL (≈ 13.1 µM)
[50]
  MIC: 4 µg/mL (≈ 13.1 µM)
[51]
  MIC: 2 µg/mL (≈ 6.53 µM)
[52]
  MIC: 4 µg/mL (≈ 13.1 µM)
[53]
  MIC: 4 µg/mL (≈ 13.1 µM)
